Values quoted from earlier work, collected in patent US20040101549A1, “Treatments” (priority 2002, published 2004).

Substance: polyestradiol phosphate [PEP]
- overall and cardiovascular mortality versus maximum androgen blockade (915 patients randomized, over 6 years, Hedlund & Henriksson): equivalent
- long-term cardiovascular protection (epidemiological comparison to an age-standardized population, Aro): significant long-term cardiovascular protection
- reduction of short-term cardiovascular morbidity (intramuscular, first line CaP therapy, Mikkola et al): over 90%
